From ChEMBL document CHEMBL1909046, “DrugMatrix in vitro pharmacology data” come the findings set out here.

Assay [1] is described as follows: DRUGMATRIX: GABAA, Flunitrazepam, Central radioligand binding (ligand: [3H] Flunitrazepam). In kind it is cell membranes, Rattus norvegicus, Wistar, Brain, Membrane. Particulars: Not Active = under 50% inhibition at 10 µM.
For assay [2], the target named is Cannabinoid receptor 1 (Homo sapiens, UniProt P21554). The class given is cell membranes, Chem-1, Membrane. Particulars: chem-1. Note: in other assays of this panel Not Active means under 50% inhibition at 10 µM.
The target in assay [3] is T1, Alpha-1A adrenergic receptor (Rattus norvegicus, UniProt P43140).
T1 sequence (P43140 whole entry): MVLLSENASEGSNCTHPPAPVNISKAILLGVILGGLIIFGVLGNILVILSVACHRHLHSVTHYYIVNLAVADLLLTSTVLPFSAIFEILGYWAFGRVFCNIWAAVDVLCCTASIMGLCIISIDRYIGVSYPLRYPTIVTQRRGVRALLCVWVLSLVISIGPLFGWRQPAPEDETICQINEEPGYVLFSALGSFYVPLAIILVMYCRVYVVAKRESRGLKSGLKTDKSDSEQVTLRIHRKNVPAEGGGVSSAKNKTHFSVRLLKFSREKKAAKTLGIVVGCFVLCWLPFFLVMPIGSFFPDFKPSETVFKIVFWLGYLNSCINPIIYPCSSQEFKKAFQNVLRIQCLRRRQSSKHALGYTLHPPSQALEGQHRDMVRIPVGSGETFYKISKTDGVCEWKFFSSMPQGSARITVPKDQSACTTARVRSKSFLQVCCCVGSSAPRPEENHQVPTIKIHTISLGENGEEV
Nature of the assay: DRUGMATRIX: Alpha-1A adrenergic receptor radioligand binding (ligand: prazosin). The following applies: Not Active = under 50% inhibition at 10 µM. In kind it is cell membranes, Wistar, Submaxillary gland, Membrane.

For assay [4], the target named is T2, C-X-C chemokine receptor type 1 (Homo sapiens, UniProt P25024). Note: in other assays of this panel Not Active means under 50% inhibition at 10 µM.
T2 sequence (P25024 whole entry): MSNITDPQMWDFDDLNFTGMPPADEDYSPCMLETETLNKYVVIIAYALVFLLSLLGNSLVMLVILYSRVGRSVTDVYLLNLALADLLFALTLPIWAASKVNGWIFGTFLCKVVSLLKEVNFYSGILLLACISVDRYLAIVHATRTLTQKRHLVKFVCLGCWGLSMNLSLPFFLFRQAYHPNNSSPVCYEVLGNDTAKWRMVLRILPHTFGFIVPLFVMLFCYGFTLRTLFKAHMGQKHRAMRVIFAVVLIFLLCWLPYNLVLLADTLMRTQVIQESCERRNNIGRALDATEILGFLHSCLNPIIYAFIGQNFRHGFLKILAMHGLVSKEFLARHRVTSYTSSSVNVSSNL

In assay [5] the target is Sodium-dependent noradrenaline transporter (Homo sapiens, UniProt P23975). Nature of the assay: DRUGMATRIX: Norepinephrine Transporter radioligand binding (ligand: [125I] RTI-55). In kind it is cell membranes, MDCK, Membrane. Particulars: Not Active = under 50% inhibition at 10 µM.
For assay [6], the target named is C-C chemokine receptor type 5 (Homo sapiens, UniProt P51681). In kind it is cell membranes, Membrane. Particulars: hek293. Note: in other assays of this panel Not Active means under 50% inhibition at 10 µM.
Sequence of C-C chemokine receptor type 5 (P51681 whole entry): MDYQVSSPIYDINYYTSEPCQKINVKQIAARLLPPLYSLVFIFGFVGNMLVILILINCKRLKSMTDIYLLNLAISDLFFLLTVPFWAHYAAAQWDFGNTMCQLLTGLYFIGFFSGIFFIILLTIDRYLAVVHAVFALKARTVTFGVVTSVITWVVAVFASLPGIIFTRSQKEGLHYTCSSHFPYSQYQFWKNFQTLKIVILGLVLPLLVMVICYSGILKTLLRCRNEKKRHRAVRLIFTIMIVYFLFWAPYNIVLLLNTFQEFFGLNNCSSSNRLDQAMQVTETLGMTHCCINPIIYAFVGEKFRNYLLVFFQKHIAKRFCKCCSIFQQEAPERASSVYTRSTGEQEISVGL

Sequence of Cannabinoid receptor 1 (P21554 whole entry): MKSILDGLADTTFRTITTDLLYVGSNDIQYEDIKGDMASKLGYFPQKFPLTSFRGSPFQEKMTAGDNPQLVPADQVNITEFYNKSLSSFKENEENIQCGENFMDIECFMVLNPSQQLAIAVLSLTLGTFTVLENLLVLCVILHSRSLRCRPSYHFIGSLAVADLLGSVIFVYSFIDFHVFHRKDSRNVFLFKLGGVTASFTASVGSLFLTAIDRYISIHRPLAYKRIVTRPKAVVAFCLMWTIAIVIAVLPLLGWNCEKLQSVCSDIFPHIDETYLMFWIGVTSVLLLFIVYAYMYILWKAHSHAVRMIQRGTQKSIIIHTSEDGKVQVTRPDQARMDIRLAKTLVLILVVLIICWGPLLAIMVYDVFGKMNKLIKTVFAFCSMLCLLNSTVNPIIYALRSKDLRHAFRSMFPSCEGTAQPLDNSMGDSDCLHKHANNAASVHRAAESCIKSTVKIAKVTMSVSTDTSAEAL
Sequence of Sodium-dependent noradrenaline transporter (P23975 whole entry): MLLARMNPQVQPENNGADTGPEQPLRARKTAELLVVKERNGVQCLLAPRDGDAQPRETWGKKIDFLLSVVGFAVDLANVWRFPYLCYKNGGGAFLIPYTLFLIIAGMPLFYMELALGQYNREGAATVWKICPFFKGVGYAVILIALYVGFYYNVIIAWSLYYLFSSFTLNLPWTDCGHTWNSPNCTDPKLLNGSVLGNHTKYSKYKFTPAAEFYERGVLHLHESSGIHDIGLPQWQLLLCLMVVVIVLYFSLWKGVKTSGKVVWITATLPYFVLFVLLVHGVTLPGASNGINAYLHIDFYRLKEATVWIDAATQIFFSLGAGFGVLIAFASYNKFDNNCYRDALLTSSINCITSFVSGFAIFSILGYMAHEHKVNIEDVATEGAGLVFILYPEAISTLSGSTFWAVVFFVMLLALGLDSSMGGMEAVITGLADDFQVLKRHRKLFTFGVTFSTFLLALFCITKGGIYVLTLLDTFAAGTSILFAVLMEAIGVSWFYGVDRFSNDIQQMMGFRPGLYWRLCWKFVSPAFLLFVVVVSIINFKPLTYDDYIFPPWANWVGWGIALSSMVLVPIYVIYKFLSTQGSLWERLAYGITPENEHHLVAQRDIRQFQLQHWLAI

By IC50 is commonly meant the concentration needed to halve the response being measured. As a reminder, the Ki is a measure of affinity in units of concentration, obtained from inhibition or displacement. Take `CC(C(=O)O)c1cccc(Oc2ccccc2)c1` (configuration not stated) [FENOPROFEN]: the IC50 entry in assay [1], in assay [2], in assay [3], in assay [4], in assay [5] (mdck) and in assay [6] was “Not Active” in each case. Moreover, in assay [1], the Ki result was “Not Active”.
As to GENTAMICIN, the IC50 result in assay [1], in assay [2], in assay [3], in assay [4], in assay [5] (mdck) and in assay [6] was “Not Active” throughout. The Ki result in assay [1], in assay [2], in assay [3], in assay [4], in assay [5] (mdck) and in assay [6] was “Not Active” in each case.
For `CC(=O)Oc1ccc(C(c2ccc(OC(C)=O)cc2)c2ccccn2)cc1` [BISACODYL], the IC50 entry in assay [1], in assay [2], in assay [3], in assay [4], in assay [5] (mdck) and in assay [6] was “Not Active” each time. In addition, the Ki entry in assay [1] is “Not Active”.
On to `C[C@@H]1O[C@@H](O[C@@H]2C=C3CC[C@@H]4[C@H](CC[C@]5(C)[C@@H](c6ccc(=O)oc6)CC[C@]45O)[C@@]3(C)CC2)[C@H](O)[C@H](O)[C@H]1O` [PROSCILLARIDIN], for which the IC50 result in assay [1], in assay [2], in assay [3], in assay [4], in assay [5] (mdck) and in assay [6] was “Not Active” in each case. The Ki entry in assay [1] was “Not Active”.
With `C[C@@H]1C[C@H]2[C@@H]3CCC4=CC(=O)C=C[C@]4(C)[C@@]3(F)[C@@H](O)C[C@]2(C)[C@@]1(O)C(=O)CO` [DEXAMETHASONE], the IC50 entry in assay [1], in assay [2], in assay [3], in assay [4], in assay [5] (mdck) and in assay [6] was “Not Active” throughout. In addition, the Ki entry in assay [1] is reported as “Not Active”.
With `C[n+]1ccc(-c2cc[n+](C)cc2)cc1.[Cl-].[Cl-]` [PARAQUAT DICHLORIDE], the IC50 result in assay [1], in assay [2], in assay [3], in assay [4], in assay [5] (mdck) and in assay [6] was “Not Active” in each case. In assay [1], the Ki entry is “Not Active”.
With `Cc1cc2c(OCC(CNC(C)(C)C)OC(=O)c3ccccc3)cccc2[nH]1` (configuration not stated) [BOPINDOLOL], the IC50 result in assay [1], in assay [2], in assay [3], in assay [4], in assay [5] (mdck) and in assay [6] was “Not Active” throughout. For the same compound, in assay [1], the Ki entry is “Not Active”.
As to `Nc1ccn([C@@H]2O[C@H](CO)[C@@H](O)C2(F)F)c(=O)n1` [GEMCITABINE], the IC50 result in assay [1], in assay [2], in assay [3], in assay [4], in assay [5] (mdck) and in assay [6] was “Not Active” each time. Besides, the Ki result in assay [1] is “Not Active”.
As to `Nc1ccn([C@@H]2O[C@H](CO)[C@@H](O)[C@@H]2O)c(=O)n1` [CYTARABINE], the IC50 result in assay [1], in assay [2], in assay [3], in assay [4], in assay [5] (mdck) and in assay [6] was “Not Active” each time. Further, in assay [1], the Ki result was “Not Active”.
Turning to GADOPENTETATE DIMEGLUMINE, the IC50 result in assay [1], in assay [2], in assay [3], in assay [4], in assay [5] (mdck) and in assay [6] was “Not Active” in each case. Also, the Ki result in assay [1], in assay [2], in assay [3], in assay [4], in assay [5] (mdck) and in assay [6] was “Not Active” throughout.
For `C=CCc1ccc(O)c(OC)c1` [EUGENOL], the IC50 result in assay [1], in assay [2], in assay [3], in assay [4], in assay [5] (mdck) and in assay [6] was “Not Active” in each case. In addition, the Ki result in assay [1] was “Not Active”.
As to `CCn1cc(C(=O)O)c(=O)c2cnc(N3CCCC3)nc21` [PIROMIDIC ACID], the IC50 result in assay [1], in assay [2], in assay [3], in assay [4], in assay [5] (mdck) and in assay [6] was “Not Active” in each case. Moreover, in assay [1], the Ki result is on record as “Not Active”.
`CC(C)c1cccc(C(C)C)c1O` [PROPOFOL]: the IC50 entry in assay [1] was “Not Active”; in assay [2] it was “Not Active”; in assay [3], “Not Active”; in assay [4], “Not Active”; in assay [5] (read-out: IC50) it was 9.39 µM; in assay [6], “Not Active”. Also, the Ki result in assay [1] is “Not Active”; in assay [5] (read-out: Ki), 9.32 µM.
`COC(=O)Nc1nc2ccc(C(=O)c3cccs3)cc2[nH]1` [NOCODAZOLE]: the IC50 result in assay [1], in assay [2], in assay [3], in assay [4], in assay [5] (mdck) and in assay [6] was “Not Active” each time. Also, the Ki entry in assay [1] was “Not Active”.
In the case of AURANOFIN, the IC50 result in assay [1], in assay [2], in assay [3], in assay [4], in assay [5] (mdck) and in assay [6] was “Not Active” each time. In addition, the inhibition constant Ki result in assay [1], in assay [2], in assay [3], in assay [4], in assay [5] (mdck) and in assay [6] was “Not Active” each time.
For the compound `Cc1nnc2n1-c1ccc(Cl)cc1C(c1ccccc1)=NC2` [ALPRAZOLAM], the IC50 in assay [1] (read-out: IC50) was 0.0166 µM; in assay [2], “Not Active”; in assay [3], “Not Active”; in assay [4], “Not Active”; in assay [5] (mdck), “Not Active”; in assay [6], “Not Active”. In addition, the Ki in assay [1] (read-out: Ki) turned out to be 0.0135 µM.
`CC(=O)[C@H]1[C@H](C#N)C[C@H]2[C@@H]3CC=C4C[C@@H](O)CC[C@]4(C)[C@H]3CC[C@@]21C` [PREGNENOLONE CARBONITRILE]: the IC50 result in assay [1], in assay [2], in assay [3], in assay [4], in assay [5] (mdck) and in assay [6] was “Not Active” in each case. Moreover, in assay [1], the Ki result is recorded as “Not Active”.
As to `C[C@@H]1CC[C@@]2(OC1)O[C@H]1[C@@H](O)[C@H]3[C@@H]4CC[C@H]5C[C@@H](O[C@@H]6O[C@H](CO)[C@H](O[C@@H]7O[C@H](CO)C(O)[C@H](O[C@@H]8OC[C@@H](O)[C@H](O)[C@H]8O)[C@H]7O[C@@H]7O[C@H](CO)[C@H](O)[C@H](O[C@@H]8O[C@H](CO)[C@@H](O)[C@H](O)[C@H]8O)[C@H]7O)[C@H](O)[C@H]6O)[C@H](O)C[C@]5(C)[C@H]4CC[C@]3(C)[C@H]1[C@@H]2C` (some centres not stated) [DIGITONIN], the IC50 entry in assay [1], in assay [2], in assay [3], in assay [4], in assay [5] (mdck) and in assay [6] was “Not Active” throughout. The inhibition constant (Ki) entry in assay [1] was “Not Active”.
